Reference: patent publication US20140090094A1, “MODULATORS OF SLC22A7” (BAYER INTELLECTUAL PROPERTY GmbH, priority 2011, published 2014)
Values joined by “and” are separate entries in the source; they are usually repeats but may differ in a detail not shown here. Equal entries are not always repeated.

How the values were obtained:
[1] = biological target: T1, OAT2r (Rattus norvegicus, UniProt Q5RLM2); test: 1 min uptake into 293 cells expressing OAT2 from rat; format: cell-based; conditions: for clearance: 1 min uptake, 0.1 μmol/l radiotracer; for uptake after preloading with orotic acid (factor f): 1 h preincubation ±100 μmol/l unlabeled orotic acid, 3H-orotic acid 0.1 μmol/l 1 min, trigonelline 10 μmol/l 5 min;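 on all read-outs here: uptake at 37 °C, read by liquid scintillation counting or LC-ESI-MS/MS, carrier-mediated part as induced-minus-uninduced expression difference corrected for baseline content, protein by BCA assay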
T1 construct: expressed in transfected cells
T1 sequence (Q5RLM2 1-535): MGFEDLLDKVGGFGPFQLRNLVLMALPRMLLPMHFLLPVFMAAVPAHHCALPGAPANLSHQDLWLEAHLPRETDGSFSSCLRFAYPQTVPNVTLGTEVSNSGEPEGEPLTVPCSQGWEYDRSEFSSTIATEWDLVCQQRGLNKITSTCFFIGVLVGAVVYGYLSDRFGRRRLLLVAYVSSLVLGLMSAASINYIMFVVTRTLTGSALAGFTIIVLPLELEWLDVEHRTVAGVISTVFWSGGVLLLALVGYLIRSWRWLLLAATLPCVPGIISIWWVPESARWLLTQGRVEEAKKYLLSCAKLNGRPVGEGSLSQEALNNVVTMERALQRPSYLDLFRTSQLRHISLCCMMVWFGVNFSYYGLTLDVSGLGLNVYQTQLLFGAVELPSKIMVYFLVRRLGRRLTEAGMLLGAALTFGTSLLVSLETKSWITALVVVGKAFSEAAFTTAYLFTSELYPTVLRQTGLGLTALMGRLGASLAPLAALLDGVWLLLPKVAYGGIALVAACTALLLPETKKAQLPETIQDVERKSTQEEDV
Protocol: Cells were used for uptake experiments at a confluence of at least 70%. Uptake was measured at 37° C. […] After preincubation for at least 20 minutes in 4 ml of uptake buffer, the buffer was replaced with 2 ml of substrate in uptake buffer. The total substrate concentration if not indicated otherwise was 0.1 μmol/l for radiotracer assays and 10 μmol/l for unlabeled compounds. Incubation was stopped after 1 min by rinsing the cells four times each with 4 ml ice-cold uptake buffer. Radioactivity was determined, after cell lysis with 0.1% v/v Triton X-100 in 5 mmol/l TRIS-HCl pH 7.4, by liquid scintillation counting. For LCelectrospray ionization-MS/MS analysis, cells were lysed with methanol and stored at −20° C.
After centrifugation (1 min, 16000×g, 20° C.) of thawed lysates, 100 μl of the supernatant was mixed with either 10 μl unlabeled MPP+ iodide (0.5 ng/μl) or biphenyl-4-carboxylic acid (Sigma-Aldrich) as internal standard. […] Atmospheric pressure ionization with positive or negative electrospray was used. For quantification (scan time 150 ms), the optimal collision energy for argon-induced fragmentation in the second quadrupole was determined for each analyte. […] Linear calibration curves were constructed from at least six standards which were prepared using control cell lysates as solvent. Sample analyte content was calculated from the analyte response ratio and the slope of the calibration curve, obtained by linear regression. With LC-MS quantitation, solute content of cell lysates was determined for 4 conditions (paired dishes, incubation time 1 min): a) transporter expression on, uptake buffer; b) expression off, uptake buffer; c) expression on, substrate in uptake buffer; d) expression off, substrate in uptake buffer. Acute uptake mediated by heterologously expressed carrier was then calculated as (c−a)−(d−b). This approach takes into account endogenous solute content and non-specific uptake. Protein was measured by the BCA assay (Pierce) with bovine serum albumin as standard. The protein content of MS samples was estimated from 3 matched cell dishes.

[2] = biological target: T1, OAT2r; test: efflux of glutamate from OAT2r-expressing 293 cells (LC-MS/MS); format: cell-based
Protocol: To test this hypothesis, 293 cells with or without expression of OAT2r were incubated 10 min in uptake buffer; then, the glutamate content of a buffer sample was determined by LC-MS/MS.
(§1) For measurement of solute uptake, cells were grown in surface culture on 60 mm polystyrol dishes (Nunclon 150288, Nunc, Roskilde, Denmark) precoated with 0.1 g/l poly-L-ornithine in 0.15 M boric acid-NaOH, pH 8.4. Cells were used for uptake experiments at a confluence of at least 70%. Uptake was measured at 37° C. Uptake buffer contains 125 mmol/l NaCl, 25 mmol/l HEPES-NaOH pH 7.4, 5.6 mmol/l (+)glucose, 4.8 mmol/l KCl, 1.2 mmol/l KH2PO4, 1.2 mmol/l CaCl2, and 1.2 mmol/l MgSO4. In glutamate efflux experiments, uptake buffer without KH2PO4 was used to avoid MS interference. After preincubation for at least 20 minutes in 4 ml of uptake buffer, the buffer was replaced with 2 ml of substrate in uptake buffer. The total substrate concentration if not indicated otherwise was 0.1 μmol/l for radiotracer assays and 10 μmol/l for unlabeled compounds. Incubation was stopped after 1 min by rinsing the cells four times each with 4 ml ice-cold uptake buffer. Radioactivity was determined, after cell lysis with 0.1% v/v Triton X-100 in 5 mmol/l TRIS-HCl pH 7.4, by liquid scintillation counting. For LCelectrospray ionization-MS/MS analysis, cells were lysed with methanol and stored at −20° C.

[3] = biological target: T1, OAT2r; test: trans-stimulation of efflux of 3H-orotic acid via OAT2r; format: cell-based; conditions: for trans-stimulation of efflux of 3H-orotic acid (in words): 1 mmol/l compound in uptake buffer, 1 min, preloaded cells
[4] = biological target: T1, OAT2r; test: time course of uptake into OAT2r-expressing 293 cells; format: cell-based; conditions: for clearance kin: 10 μmol/l unlabeled substrate, 37° C., OAT2r-expressing cells; for factor by which expression of OAT2r increased the clearance: kin on versus off
[5] = test system: 293 cells; test: uptake into uninduced control 293 cells (expression off); format: cell-based, human; conditions: for clearance kin: 10 μmol/l unlabeled substrate
Protocol: Time course of trigonelline uptake. Cells grown in dishes were incubated at 37° C. with 10 μmol/l unlabeled trigonelline in uptake buffer for the indicated periods, washed, and lysed. The function for non-linear regression was y=y0+kin/kout*cout*(1−exp(−kout*x)); parameter y0 allows for trigonelline accumulation from the culture medium.
293 cells (ATCC CRL-1573; also known as HEK-293 cells), a transformed cell line derived from human embryonic kidney, were grown at 37° C. in a humidified atmosphere (5% CO2) in plastic culture flasks (Falcon 3112, Becton Dickinson, Heidelberg, Germany). The growth medium was Dulbecco's Modified Eagle Medium (Life Technologies 31885-023, Invitrogen, Karlsruhe, Germany) supplemented with 10% fetal calf serum (PAA Laboratories, Cölbe, Germany). Medium was changed every 2-3 days and the culture was split every 5 days. Stably transfected cell lines were generated as reported previously (Bach M et al. FEBS Journal 2007; 274:783-790.). As there is no integration of vector pEBTetD into the genome, clonal isolation of transfected cells is not necessary; we thus use cell pools rather than single cell clones. Cell culture medium always contained 3 μg/ml puromycin (PAA Laboratories) to ascertain plasmid maintenance. To turn on protein expression, cells were cultivated for at least 20 h in regular growth medium supplemented with 1 μg/ml doxycycline (195044, MP Biomedicals, Eschwege, Germany).
as §1
After centrifugation (1 min, 16000×g, 20° C.) of thawed lysates, 100 μl of the supernatant was mixed with either 10 μl unlabeled MPP+ iodide (0.5 ng/μl) or biphenyl-4-carboxylic acid (Sigma-Aldrich) as internal standard. Of this mixture, […] were analyzed by LCMS/MS on a triple quadrupole mass spectrometer (4000 Q TRAP, Applied Biosystems, Darmstadt, Germany). […] Atmospheric pressure ionization with positive or negative electrospray was used. For quantification (scan time 150 ms), the optimal collision energy for argon-induced fragmentation in the second quadrupole was determined for each analyte. […] Linear calibration curves were constructed from at least six standards which were prepared using control cell lysates as solvent. Sample analyte content was calculated from the analyte response ratio and the slope of the calibration curve, obtained by linear regression. With LC-MS quantitation, solute content of cell lysates was determined for 4 conditions (paired dishes, incubation time 1 min): a) transporter expression on, uptake buffer; b) expression off, uptake buffer; c) expression on, substrate in uptake buffer; d) expression off, substrate in uptake buffer. Acute uptake mediated by heterologously expressed carrier was then calculated as (c−a)−(d−b). This approach takes into account endogenous solute content and non-specific uptake.

[6] = time course, uninduced control cells

SMILES	clearance ([1]; sodium-free buffer)	clearance ([1]; standard uptake buffer)	release of glutamate upon expression of OAT2 (in words) ([2]; 10 min in uptake buffer, without extracellular exchange substrate)	trans-stimulation of efflux of 3H-orotic acid (in words) [3]	uptake after preloading with orotic acid (factor f) [1]	factor of uptake reduction on average ([1]; sodium chloride replaced by choline, lithium or potassium chloride, or magnesium and calcium omitted)	intracellular plateau ([4]; 10 μmol/l unlabeled orotic acid, after 60 min, LC-MS/MS)	intracellular concentration corresponding to plateau ([4]; calculated with an intracellular water space of 6.7 μl/mg protein)	clearance kin ([4]; time course)	factor by which expression of OAT2r increased the clearance ([4]; time course)	kout ([4]; time course, unlabeled orotic acid, expression on)	effect on efflux of glutamate (in words) ([2]; 1 mmol/l compound in uptake buffer, 10 min)	cell content directly after washing ([3]; 1 h, 37° C. preloading with 100 μmol/l 3H-orotic acid, OAT2r-expressing cells, n=4)	intracellular content ([5]; 10 μmol/l unlabeled orotic acid, after 60 min, cells lacking the transporter)	cell content directly after washing ([5]; 1 h, 37° C. preloading with 100 μmol/l 3H-orotic acid, uninduced control cells, n=4)	non-specific uptake into control cells, slope ([5]; saturation experiment, 1 min, expression off)	clearance kin [5, 6]	kout ([5]; time course, unlabeled orotic acid, expression off)	carrier-mediated clearance ([1]; initial rate 1 min, 37° C., 10 μmol/l, LC-MS/MS, uptake buffer in the expression period)
N[C@@H](CCC(=O)O)C(=O)O [glutamate]	24±1 μl min-1 mg protein-1	35±3 μl min-1 mg protein-1	markedly increased release	accelerated efflux															
O=C(O)c1cc(=O)[nH]c(=O)[nH]1 [orotic acid]		106±4 μl min-1 mg protein-1 and 106 μl min-1 mg protein-1		markedly accelerated efflux	0.7	0.75	5.8 nmol/mg protein	870 µmol/L	50.1±6.4 μl min-1 mg protein-1	86	0.09 ± 0.01 min⁻¹	strongly trans-stimulated efflux of glutamate	56±3 nmol/mg protein	0.05 nmol/mg protein	3.5±0.1 nmol/mg protein	0.56 μl min-1 mg protein-1	0.58±0.12 μl min-1 mg protein-1	0.12 ± 0.03 min⁻¹	
C[n+]1cccc(C(=O)[O-])c1 [trigonelline]					0.7				5.1±1.4 μl min-1 mg protein-1	~50							0.11±0.01 μl min-1 mg protein-1		4.8±0.5 μl min-1 mg protein-1
